{
  "source": "patent US20170266266A1",
  "about": "“Functions of 55 Newfound Proteins and Their Medicinal Application in the Treatment and Prevention of Disease” (priority 2012, published 2017)",
  "key": {"[1]": {"test_system": "atherosclerosis in New Zealand white rabbit on high fat diet", "conditions": "for high density lipoprotein cholesterin (HDL-C) Increase / high density lipoprotein cholesterin (HDL-C) Increase (%) / high density lipoprotein cholesterin (HDL-C) Wk 0 / high density lipoprotein cholesterin (HDL-C) Wk 19 / ligh density lipoprotein cholesterin (LDL-C) Increase / ligh density lipoprotein cholesterin (LDL-C) Increase (%) / ligh density lipoprotein cholesterin (LDL-C) Wk0 / ligh density lipoprotein cholesterin (LDL-C) Wk 19 / total cholesterol (TC) Increase / total cholesterol (TC) Increase (%) / total cholesterol (TC) Wk0 / total cholesterol (TC) Wk 19 / total triglyceride (TG) Increase / total triglyceride (TG) Increase (%) / total triglyceride (TG) Wk 0 / total triglyceride (TG) Wk 19: serum", "procedure": "New Zealand rabbits were adopted in this animal study and divided into 5 groups. They were high dose, medium dose and low dose of treatment, positive and vehicle control. The treatment groups were given APOAI via auricular vein once a week. […] Positive controls were given Liptor daily by p.o. with a dose of 0.45 mg/kg body weight. […] The study duration was 19 weeks. At the end of study, all animals were sacrificed. […] Lipid content was examined in liver and aorta. And liver index was also determined.\nThe body weight was between 1.8-2.0 kg. The animals were quarantined for 5-10 days with normal diet before study.\nAnimals were randomly divided into 5 groups including vehicle control, high dose, medium dose, low dose and positive control group. Ten to 14 rabbits were in one group. Each rabbit was fed with 30 gram of high fat diet followed by 120 gram of normal diet with free access to water.\nThe frequency of dosing was once a week. Dose was 80, 40, 20 mg/kg body weight respectively. Drug was given by intravenous injection via auricular vein with the volume of 5 mL.\n5.1 body weight: body weight of each rabbit was determined once a week.\nResulted blood samples were kept still for 2 hours and then spin with 4,000 rpm for 10 min.\nAbdomen cavity was opened. Whole blood was taken from heart. Heart was harvested along with 7 cm of aorta.\nThe aorta was dissected for 0.5 cm from aortic arch, split longitudinally and then kept in cryo-preservation tube for later lipid analysis. One piece of this sample was fixed in formalin for further pathological analysis.\nThe weight of liver was determined immediately. Two pieces of specimen were cut from hepatic lobe.\nResulted blood samples were kept still for 2 hours.\nThe aorta was dissected and opened for 7.5 cm from aortic arch longitudinally. Pictures were taken and atherosclerosis changing was analyzed."}, "[2]": {"test_system": "atherosclerosis in LDLR KO mice", "test": "Efficacy of AFOD RAAS 1 (APOA1) on atherosclerosis, LDLR KO mice", "format": "in vivo"}, "[3]": {"test_system": "SK-OV-3-luc ovarian cancer", "test": "Ovarian cancer survival in mice", "format": "in vivo", "conditions": "group mean, study still ongoing", "description": "Ovarian cancer study has been conducted at Wuxi AppTec under Dr. Yong Cang and the study is still ongoing as of Aug. 4, 2013. However in order to show the comparison mean days of the death of the mice in each group to compare with the positive drug group which has 76.8 days.\nBioluminescent images of RAAS-20120628-SK-OV-3-luc for all groups.\nAt day 63 after ovarian cancer has started an experiment of Kieu Hoang AFCC TM by oral application of four mice left from the entire group. That means that by day 63 ovarian cancer has already developed. In the beginning we forced the mice to drink without water, therefore the mice died in early stage."}},
  "note": "Like-named read-outs stand apart in the source and are kept apart here.",
  "data": [
    {"substance": "human Apolipoprotein AI [APOAI]", "values": [
      {"measurement": "atherosclerosis change in Arteria carotis", "setting": "[1]; rabbit, in vivo", "result": "no atherosclerosis change found"},
      {"measurement": "calcification, pathological examination", "setting": "[1]; rabbit, in vivo", "result": "no calcification found"},
      {"measurement": "high density lipoprotein cholesterin (HDL-C) Increase", "setting": "[1]; High dose (n = 8)", "result": "3.81 ± 2.025", "unit": "mmol/L"},
      {"measurement": "high density lipoprotein cholesterin (HDL-C) Increase (%)", "setting": "[1]; High dose (n = 8)", "result": 322.1, "unit": "%"},
      {"measurement": "high density lipoprotein cholesterin (HDL-C) Wk 0", "setting": "[1]; High dose (n = 8)", "result": "1.183 ± 0.149", "unit": "mmol/L"},
      {"measurement": "high density lipoprotein cholesterin (HDL-C) Wk 19", "setting": "[1]; High dose (n = 8)", "result": "4.993 ± 2.018", "unit": "mmol/L"},
      {"measurement": "ligh density lipoprotein cholesterin (LDL-C) Increase", "setting": "[1]; High dose (n = 8)", "result": "13.18 ± 4.053", "unit": "mmol/L"},
      {"measurement": "ligh density lipoprotein cholesterin (LDL-C) Increase (%)", "setting": "[1]; High dose (n = 8)", "result": 1432.6, "unit": "%"},
      {"measurement": "ligh density lipoprotein cholesterin (LDL-C) Wk0", "setting": "[1]; High dose (n = 8)", "result": "0.92 ± 0.324", "unit": "mmol/L"},
      {"measurement": "ligh density lipoprotein cholesterin (LDL-C) Wk 19", "setting": "[1]; High dose (n = 8)", "result": "14.1 ± 4.188", "unit": "mmol/L"},
      {"measurement": "total cholesterol (TC) Increase", "setting": "[1]; High dose (n = 8)", "result": "10.90 ± 2.66", "unit": "mmol/L"},
      {"measurement": "total cholesterol (TC) Increase (%)", "setting": "[1]; High dose (n = 8)", "result": 685.5, "unit": "%"},
      {"measurement": "total cholesterol (TC) Wk0", "setting": "[1]; High dose (n = 8)", "result": "1.59 ± 0.48", "unit": "mmol/L"},
      {"measurement": "total cholesterol (TC) Wk 19", "setting": "[1]; High dose (n = 8)", "result": "12.49 ± 2.81", "unit": "mmol/L"},
      {"measurement": "high density lipoprotein cholesterin (HDL-C) Increase", "setting": "[1]; Low dose (n = 12)", "result": "3.04 ± 2.019", "unit": "mmol/L"},
      {"measurement": "high density lipoprotein cholesterin (HDL-C) Increase (%)", "setting": "[1]; Low dose (n = 12)", "result": 431.2, "unit": "%"},
      {"measurement": "high density lipoprotein cholesterin (HDL-C) Wk 0", "setting": "[1]; Low dose (n = 12)", "result": "0.705 ± 0.246", "unit": "mmol/L"},
      {"measurement": "high density lipoprotein cholesterin (HDL-C) Wk 19", "setting": "[1]; Low dose (n = 12)", "result": "3.744 ± 2.14", "unit": "mmol/L"},
      {"measurement": "ligh density lipoprotein cholesterin (LDL-C) Increase", "setting": "[1]; Low dose (n = 12)", "result": "6.472 ± 4.468", "unit": "mmol/L"},
      {"measurement": "ligh density lipoprotein cholesterin (LDL-C) Increase (%)", "setting": "[1]; Low dose (n = 12)", "result": 783.5, "unit": "%"},
      {"measurement": "ligh density lipoprotein cholesterin (LDL-C) Wk0", "setting": "[1]; Low dose (n = 12)", "result": "0.826 ± 0.279", "unit": "mmol/L"},
      {"measurement": "ligh density lipoprotein cholesterin (LDL-C) Wk 19", "setting": "[1]; Low dose (n = 12)", "result": "7.298 ± 4.60", "unit": "mmol/L"},
      {"measurement": "total cholesterol (TC) Increase", "setting": "[1]; Low dose (n = 12)", "result": "8.01 ± 4.87", "unit": "mmol/L"},
      {"measurement": "total cholesterol (TC) Increase (%)", "setting": "[1]; Low dose (n = 12)", "result": 755.6, "unit": "%"},
      {"measurement": "total cholesterol (TC) Wk0", "setting": "[1]; Low dose (n = 12)", "result": "1.06 ± 0.27", "unit": "mmol/L"},
      {"measurement": "total cholesterol (TC) Wk 19", "setting": "[1]; Low dose (n = 12)", "result": "9.07 ± 4.92", "unit": "mmol/L"},
      {"measurement": "total triglyceride (TG) Increase", "setting": "[1]; Low dose (n = 12)", "result": "0.482 ± 0.839", "unit": "mmol/L"},
      {"measurement": "total triglyceride (TG) Increase (%)", "setting": "[1]; Low dose (n = 12)", "result": 61.3, "unit": "%"},
      {"measurement": "total triglyceride (TG) Wk 0", "setting": "[1]; Low dose (n = 12)", "result": "0.786 ± 0.229", "unit": "mmol/L"},
      {"measurement": "total triglyceride (TG) Wk 19", "setting": "[1]; Low dose (n = 12)", "result": "1.267 ± 0.772", "unit": "mmol/L"},
      {"measurement": "high density lipoprotein cholesterin (HDL-C) Increase", "setting": "[1]; Medium dose (n = 9)", "result": "3.674 ± 2.413", "unit": "mmol/L"},
      {"measurement": "high density lipoprotein cholesterin (HDL-C) Increase (%)", "setting": "[1]; Medium dose (n = 9)", "result": 548.4, "unit": "%"},
      {"measurement": "high density lipoprotein cholesterin (HDL-C) Wk 0", "setting": "[1]; Medium dose (n = 9)", "result": "0.67 ± 0.207", "unit": "mmol/L"},
      {"measurement": "high density lipoprotein cholesterin (HDL-C) Wk 19", "setting": "[1]; Medium dose (n = 9)", "result": "4.343 ± 2.439", "unit": "mmol/L"},
      {"measurement": "ligh density lipoprotein cholesterin (LDL-C) Increase", "setting": "[1]; Medium dose (n = 9)", "result": "5.297 ± 4.373", "unit": "mmol/L"},
      {"measurement": "ligh density lipoprotein cholesterin (LDL-C) Increase (%)", "setting": "[1]; Medium dose (n = 9)", "result": 499.7, "unit": "%"},
      {"measurement": "ligh density lipoprotein cholesterin (LDL-C) Wk0", "setting": "[1]; Medium dose (n = 9)", "result": "1.06 ± 0.298", "unit": "mmol/L"},
      {"measurement": "ligh density lipoprotein cholesterin (LDL-C) Wk 19", "setting": "[1]; Medium dose (n = 9)", "result": "6.357 ± 4.475", "unit": "mmol/L"},
      {"measurement": "total cholesterol (TC) Increase", "setting": "[1]; Medium dose (n = 9)", "result": "8.505 ± 5.37", "unit": "mmol/L"},
      {"measurement": "total cholesterol (TC) Increase (%)", "setting": "[1]; Medium dose (n = 9)", "result": 453.0, "unit": "%"},
      {"measurement": "total cholesterol (TC) Wk0", "setting": "[1]; Medium dose (n = 9)", "result": "1.77 ± 0.783", "unit": "mmol/L"},
      {"measurement": "total cholesterol (TC) Wk 19", "setting": "[1]; Medium dose (n = 9)", "result": "10.28 ± 5.82", "unit": "mmol/L"},
      {"measurement": "total triglyceride (TG) Increase", "setting": "[1]; Medium dose (n = 9)", "result": "1.488 ± 0.988", "unit": "mmol/L"},
      {"measurement": "total triglyceride (TG) Increase (%)", "setting": "[1]; Medium dose (n = 9)", "result": 226.8, "unit": "%"},
      {"measurement": "total triglyceride (TG) Wk 0", "setting": "[1]; Medium dose (n = 9)", "result": "0.656 ± 0.191", "unit": "mmol/L"},
      {"measurement": "total triglyceride (TG) Wk 19", "setting": "[1]; Medium dose (n = 9)", "result": "2.144 ± 1.043", "unit": "mmol/L"},
      {"measurement": "blood lipid parameters", "setting": "[1]; test article given along with high fat diet", "result": "no significant decrease in blood lipid parameters"},
      {"measurement": "liver index", "setting": "[1]; treatment group vs vehicle", "result": "lower in treatment group, but there's no statistical difference found"},
      {"measurement": "lipid content in aorta vs vehicle control", "setting": "[1]; treatment groups", "result": "lower in treatment groups than that in vehicle control but there was no statistical significance"},
      {"measurement": "reduction and prevention of atherosclerosis", "setting": "[2]", "result": "effective in the reduction and prevention of atherosclerosis"},
      {"measurement": "Mean Survival Time", "setting": "[3]", "result": 115.8, "unit": "days"}
    ]}
  ]
}
